A short description of the series: Evaluation of stability in liver microsome. As to conditions: mouse liver microsome 0.25 mg/mL, 1 μM test compound, 37° C. for 30 minutes. For orientation: Liver microsomes are vesicles of endoplasmic reticulum, rich in cytochrome P450 enzymes.
Procedure: Solutions of the test compounds in DMSO/acetonitrile (the final concentration of each test compound was 1 μM, the final concentration of DMSO was 0.01%, and the final concentration of acetonitrile was 1%) were individually added to a liver microsome mixture solution (mouse liver microsome with a final concentration of 0.25 mg/mL, a potassium phosphate buffer with a final concentration of 100 mM, and magnesium chloride with a final concentration of 3 mM), and each mixture was pre-incubated at 37° C. for 5 minutes. […] After incubation at 37° C. for 30 minutes, a double amount of ethanol was added thereto to terminate the reaction, thereby obtaining post-reaction samples. A double amount of ethanol was added to each of the remaining mixture solutions, and a NADPH-generating system was further added thereto, thereby obtaining pre-reaction samples. The pre-reaction samples and post-reaction samples were centrifuged at 2000×g, and their supernatant was filtered through a glass filter. Each filtrate was then introduced into LC-MS/MS, and MS/MS peaks of the test compounds were detected. From the ratio of the post-reaction MS/MS peak to the pre-reaction MS/MS peak of the test compounds, the percentage of the remaining test compounds (remaining %) was calculated.
Turning to `COCc1ccc(NC(=O)c2c(C#Cc3ccccn3)n(C3(C)CC3)c3ncnc(N)c23)cc1` [Example 172, 4-amino-N-[4-(methoxymethyl)phenyl]-7-(1-methylcyclopropyl)-6-(pyridin-2-ylethynyl)-7H-pyrrolo[2,3-d]pyrimidine-5-carboxamide], the “Remaining (%)” value is on record as 61%.
In the case of `COCc1ccc(NC(=O)c2cn(C3(C(F)F)CC3)c3ncnc(N)c23)cc1` [Example 46, 4-amino-7-(1-(difluoromethyl)cyclopropyl)-N-(4-(methoxymethyl)phenyl)-7H-pyrrolo[2,3-d]pyrimidine-5-carboxamide], the “Remaining (%)” value was determined as 65%.
For `COCc1ccc(NC(=O)c2c(C#Cc3csc(C)n3)n(C3(C)CC3)c3ncnc(N)c23)cc1` [Example 126, 4-amino-N-(4-(methoxymethyl)phenyl)-7-(1-methylcyclopropyl)-6-((2-methylthiazol-4-yl)ethynyl)-7H-pyrrolo[2,3-d]pyrimidine-5-carboxamide], the “Remaining (%)” value came out at 69%.
On to `COCc1ccc(NC(=O)c2c(C#Cc3ccc(N)nc3)n(C3(C)CC3)c3ncnc(N)c23)cc1` [Example 155, 4-amino-6-((6-aminopyridin-3-yl)ethynyl)-N-(4-(methoxymethyl)phenyl)-7-(1-methylcyclopropyl)-7H-pyrrolo[2,3-d]pyrimidine-5-carboxamide], for which the “Remaining (%)” value amounted to 64%.
The value for `COCc1ccc(NC(=O)c2cn(C(C)(C)C)c3ncnc(N)c23)cc1F` [Example 30, 4-amino-7-(tert-butyl)-N-(3-fluoro-4-(methoxymethyl)phenyl)-7H-pyrrolo[2,3-d]pyrimidine-5-carboxamide] was 54%.
Next, `COCc1ccc(NC(=O)c2c(C#Cc3cccc(NCc4ccncc4)c3)n(C3(C)CC3)c3ncnc(N)c23)cc1` [Example 122, 4-amino-N-(4-(methoxymethyl)phenyl)-7-(1-methylcyclopropyl)-6-((3-((pyridin-4-ylmethyl)amino)phenyl)ethynyl)-7H-pyrrolo[2,3-d]pyrimidine-5-carboxamide]: 62%.
Next, `COCc1ccc(NC(=O)c2c(Br)n(C3(C)CC3)c3ncnc(N)c23)cc1` [Example 55, 4-amino-6-bromo-N-[4-(methoxymethyl)phenyl]-7-(1-methylcyclopropyl)-7H-pyrrolo[2,3-d]pyrimidine-5-carboxamide]: 56%; `COCc1ccc(NC(=O)c2c(OCC3CCCC3)n(C3(C)CC3)c3ncnc(N)c23)cc1` [Example 140, 4-amino-6-(cyclopentylmethoxy)-N-(4-(methoxymethyl)phenyl)-7-(1-methylcyclopropyl)-7H-pyrrolo[2,3-d]pyrimidine-5-carboxamide]: 52%; `COCc1ccc(NC(=O)c2c(OCC3CCCO3)n(C3(C)CC3)c3ncnc(N)c23)cc1` (stereo not shown) [Example 135, 4-amino-N-(4-(methoxymethyl)phenyl)-7-(1-methylcyclopropyl)-6-((tetrahydrofuran-2-yl)methoxy)-7H-pyrrolo[2,3-d]pyrimidine-5-carboxamide]: 67%.
With `COCc1ccc(NC(=O)c2c(C)n(C(C)(C)C)c3ncnc(N)c23)cc1` [Example 60, 4-amino-7-(tert-butyl)-N-(4-(methoxymethyl)phenyl)-6-methyl-7H-pyrrolo[2,3-d]pyrimidine-5-carboxamide], the “Remaining (%)” value was 81%.
As to `COCc1ccc(NC(=O)c2c(OC[C@@H](C)OC)n(C3(C)CC3)c3ncnc(N)c23)cc1` [Example 96, (R)-4-amino-N-(4-(methoxymethyl)phenyl)-6-(2-methoxypropoxy)-7-(1-methylcyclopropyl)-7H-pyrrolo[2,3-d]pyrimidine-5-carboxamide], the “Remaining (%)” value was determined as 71%.
With `COCc1ccc(NC(=O)c2c(C#Cc3ccc(Cl)nc3)n(C3(C)CC3)c3ncnc(N)c23)cc1` [Example 120, 4-amino-6-((6-chloropyridin-3-yl)ethynyl)-N-(4-(methoxymethyl)phenyl)-7-(1-methylcyclopropyl)-7H-pyrrolo[2,3-d]pyrimidine-5-carboxamide], the “Remaining (%)” value is on record as 72%.
Next, `COCc1ccc(NC(=O)c2c(C#Cc3cnc4ccoc4c3)n(C3(C)CC3)c3ncnc(N)c23)cc1` [Example 159, 4-amino-6-(furo[3,2-b]pyridin-6-ylethynyl)-N-(4-(methoxymethyl)phenyl)-7-(1-methylcyclopropyl)-7H-pyrrolo[2,3-d]pyrimidine-5-carboxamide]: 78%; `COCc1ccc(NC(=O)c2c(OCC(C)OC)n(C3(C)CC3)c3ncnc(N)c23)cc1` (stereo not shown) [Example 100, 4-amino-N-(4(methoxymethyl)phenyl)-6-(2-methoxypropoxy)-7-(1-methylcyclopropyl)-7H-pyrrolo[2,3-d]pyrimidine-5-carboxamide]: 76%.
The value for `CCOc1c(C(=O)Nc2ccc(COC)cc2)c2c(N)ncnc2n1C1(C)CC1` [Example 127, 4-amino-6-ethoxy-N-(4-(methoxymethyl)phenyl)-7-(1-methylcyclopropyl)-7H-pyrrolo[2,3-d]pyrimidine-5-carboxamide] was 70%.
As for `COCc1ccc(NC(=O)c2cn(C(C)(C)CF)c3ncnc(N)c23)cc1` [Example 26, 4-amino-7-(1-fluoro-2-methylpropan-2-yl)-N-(4-(methoxymethyl)phenyl)-7H-pyrrolo[2,3-d]pyrimidine-5-carboxamide], the “Remaining (%)” value stood at 60%.
The value for `CCn1cc(C#Cc2c(C(=O)Nc3ccc(COC)cc3)c3c(N)ncnc3n2C2(C)CC2)cn1` [Example 118, 4-amino-6-((1-ethyl-1H-pyrazol-4-yl)ethynyl)-N-(4-(methoxymethyl)phenyl)-7-(1-methylcyclopropyl)-7H-pyrrolo[2,3-d]pyrimidine-5-carboxamide] was 73%; that for `CCc1c(C(=O)Nc2ccc(COC)cc2)c2c(N)ncnc2n1C1(C)CC1` [Example 207, 4-amino-6-ethyl-N-(4-(methoxymethyl)phenyl)-7-(1-methylcyclopropyl)-7H-pyrrolo[2,3-d]pyrimidine-5-carboxamide] was 72%; that for `COCc1ccc(NC(=O)c2c(OC)n(C3(C)CC3)c3ncnc(N)c23)cc1` [Example 57, 4-amino-6-methoxy-N-[4-(methoxymethyl)phenyl]-7-(1-methylcyclopropyl)-7H-pyrrolo[2,3-d]pyrimidine-5-carboxamide] was 86%.
For `COCc1ccc(NC(=O)c2c(C#Cc3cnc4[nH]ccc4c3)n(C3(C)CC3)c3ncnc(N)c23)cc1` [Example 128, 6-((1H-pyrrolo[2,3-b]pyridine-5-yl)ethynyl)-4-amino-N-(4-(methoxymethyl)phenyl)-7-(1-methylcyclopropyl)-7H-pyrrolo[2,3-d]pyrimidine-5-carboxamide], the “Remaining (%)” value is reported as 82%.
Next, `COCc1ccc(NC(=O)c2cn(C3(C4CC4)CC3)c3ncnc(N)c23)cc1` [Example 49, 7-{[1,1-bi(cyclopropane)]-1-yl}-4-amino-N-(4-(methoxymethyl)phenyl)-7H-pyrrolo[2,3-d]pyrimidine-5-carboxamide]: 67%; `COCc1ccc(NC(=O)c2c(C3=CCOCC3)n(C3(C)CC3)c3ncnc(N)c23)cc1` [Example 203, 4-amino-6-(3,6-dihydro-2H-pyran-4-yl)-N-(4-(methoxymethyl)phenyl)-7-(1-methylcyclopropyl)-7H-pyrrolo[2,3-d]pyrimidine-5-carboxamide]: 68%.

Source of the values: US10155768B2, “Fused pyrimidine compound or salt thereof” (TAIHO PHARMACEUTICAL CO., LTD., priority 2016, dated 2018).
